Columns and labels:
[1] = Circular dichroism spectra and thermal melting of CMPs; type: physicochemical
Experimental: Circular dichroism spectroscopy. CD spectra were collected on JASCO 715 spectrophotometer equipped with a JASCO PTC-348 WI temperature controller and quartz cells (0.1 mm path length). CMP solutions (320 μL, 150 μM in 1×PBS) were stored at 4° C. for at least 24 hours before measurement. For photo-decaging, samples were exposed to 365 nm UV light for at least 30 minutes before the 4° C. incubation. The thermal melting studies were performed by measuring the ellipticity at 225 nm with 60° C./hr heating rate. Raw CD signal was normalized to mean residue ellipticity based on the peptide's length and concentration (Biopolymers 95:94-104 (2011)). Melting temperatures (Tm) were determined by fitting the mean residue ellipticity to a two-state model (Org Lett 8:4735-4738 (2006)). To measure the refolding kinetics, CMP solution was thermally denatured at 75° C. for 10 minutes in a cuvette and rapidly quenched to 25° C. in an ice-water bath, after which the CD signal at 225 nm was observed over time at 25° C. The CD spectra of intact and MMP-1 cleaved type I collagen (FIG. 12) was measured in 90 μg/mL protein solutions in 20 mM acetic acid buffer at 22° C. The 37° C. thermal stability profile (FIG. 2E, inset) was generated by monitoring the ellipticity at 222 nm immediately after transferring the cuvette to a temperature controlled cuvette holder pre-set to 37° C. The Tm values reported in this study are approximately 10° C. higher than the equilibrium Tm due to high heating rate (60° C./hr) (Biopolymers 73:682-688 (2004)).
Synthesis of fluorescently labeled collagen mimetic peptides. Non-caged CMPs were synthesized using Fmoc-mediated solid-phase chemistry by manual or automated synthesis as described previously.2,4 The caged NB(GPO)9 (SEQ ID NO: 12) was prepared by introducing Fmoc(N-o-nitrobenzyl)Gly-OH (synthesized according to Tatsu et al. 2,5) in the middle of the standard solid-phase peptide synthesis. The Hyp residue following the NBGly was conjugated using 9 molar equiv of Fmoc-Hyp(tBu)-OH, 8.8 molar equiv of PyBroP, and 20 molar equiv of DIPEA for over 24 hr to overcome the low reactivity caused by the steric hindrance of the NB cage group. The remaining sequence including the GGG spacer was completed by HBTU chemistry, followed by on-resin labeling with 6 molar equivalent of CF or TAMRA activated by 6 molar equivalent of PyAOP for over 24 hr. The full length fluorescent CMPs were cleaved from resin by treating the resin with TFA/TIS/H2O (95:2.5:2.5) for 3 hr and the cleaved peptide was purified by reverse phase HPLC on a Vydac C18 column using a linear gradient mixture of water (0.1% TFA) and acetonitrile (0.1% TFA) (5-45% acetonitrile gradient in 40 min). The purified peptides were analyzed by MALDI-TOF MS (FIG. 27): m/z calculated 2975.1 [M+Na+] for CF(GPO)9 (SEQ ID NO: 10), found 2975.0 [M+Na+]; m/z calculated 2975.1 [M+Na+] for ^SG9P9O9 (SEQ ID NO: 5), found 2973.5 [M+Na+]; m/z calculated 3110.2 [M+Na+] for CF^NB(GPO)9 (SEQ ID NO: 4), found 3109.4 [M+Na+]; m/z calculated 2975.1 [M+Na+] for CF(GPO)9 (SEQ ID NO: 10) [CF^NB(GPO)9 (SEQ ID NO: 4) after UV decaging], found 2974.1 [M+Na+]; m/z calculated 3142.3 [M+H+] for TAMRA-NB(GPO)9 (SEQ ID NO: 12), found 3141.4 [M+H+]; m/z calculated 3007.2 [M+H+] for TAMRA-(GPO)9 (SEQ ID NO: 15), [TAMRA-NB(GPO)9 (SEQ ID NO: 12) after decaging], found 3006.3 [M+H+]. CD spectra and CD melting curves of the labeled CMPs were acquired in PBS solutions using a JASCO 715 CD spectrophotometer. The solutions were incubated for at least 24 hours at 4° C. prior to CD experiment to ensure folding (FIG. 28).

[2] = test system: type I and type II gelatin; assay: CMP binding assay on thermally-denatured type I and II collagens (coatings); parameters: species or system rat (type I), bovine (type II); conditions: UV-exposed, 20 μM, room temperature
Experimental: CMP binding assay on thermally-denatured type I and II collagens. A solid-state protein coating instead of a reconstituted gelatin film (as described above) was chosen as the binding substrate to avoid the collagen type dependent film instability. Wells of nunc black 96-well maxisorp plate (Thermo Scientific) were charged with 50 μL of 1×PBS buffer containing 100 μg/mL type I or type II (bovine, BD Science) collagen which was denatured by 10 minutes of incubation at 75° C. After 1 hour, the coating solutions were removed and wells were washed with 1×PBS buffer containing 1 mg/mL BSA (PBSB), and blocked with 50 mg/mL BSA in PBS for 1 hour, followed by additional wash with PBSB. CF^NB(GPO)9 (SEQ ID NO: 4) or CF^SG9P9O9 (SEQ ID NO: 5) solution (20 μM, 50 μL in PBS) was added to each well, exposed to UV light for 10 min, and incubated at room temperature for 2.5 hours. Wells were washed three times with 100 μL of PBSB followed by fluorescence (ex: 489 nm, em: 533 nm) reading with a SpectraMax M-2 microplate reader (Molecular Devices). Each binding experiment was done in triplicate. The background fluorescence of empty wells was subtracted from the raw fluorescence data.

Substance	Tm (CD melting curve, triple helix) ([1]; after UV exposure (photo-decaged), heating rate 60° C./hr, Tm about 10° C. higher than equilibrium Tm) [°C]	triple helical folding capacity (CD melting) ([1]; after UV exposure / photo-cleavage of NB cage)	triple helical folding capacity (CD melting) ([1]; caged, before UV exposure)	binding affinity to gelatin (fluorescence level) [2]	melting temperature (Tm), CD melting curve ([1]; non-caged peptide in PBS, CD at 225 nm, 1° C./min heating rate) [°C]	triple helical folding capacity (CD melting) ([1]; sequence-scrambled peptide)
CF-GGG-(GPO)4^NBGPO(GPO)4 [CF^NB(GPO)9]	75	regain its full triple helical folding capacity	completely suppressed the CMP's ability to fold into a triple helix	confirmed for both type I and type II gelatin		
CF-GGG-(GPO)9 [CF(GPO)9]					75	
CF-GGG-PGOGPGPOPOGOGOPPGOOPGGOOPPG [CF^SG9P9O9, reference compound]				negligible affinity to gelatin		lack of triple helical structure

Source: patent US10426850B2, “Collagen mimetic peptides for targeting collagen strands for in vitro and in vivo imaging and therapeutic use” (The Johns Hopkins University, priority 2011, dated 2019)
